Data published in paper PMC9926489, “Chemical Optimization of Selective Pseudomonas aeruginosa LasB Elastase Inhibitors and Their Impact on LasB-Mediated Activation of IL-1β in Cellular and Animal Infection Models” (ACS Infectious Diseases, 2023).

Assays:
[1] = Cytotoxicity screening (MTS), BSMC; assay type: cell-based; conditions: human, bronchial smooth muscle cells (BSMC)
Procedure: (§1) Bronchial smooth muscle cells (BSMC, Lonza CC-2576), small airway epithelial cells (SAEC, Lonza CC-2547), or HepG2 cells (ATCC HB-8065) were seeded in 96-well plates at a density of 25,000 per well. Culture of these cells throughout the protocol utilized incubation at 37 °C, 5% CO2 in a humidified atmosphere, with BSMC and SAEC cells cultured in cell-specific media (Lonza) and HepG2 cells cultured in RPMI 1640 medium containing Glutamax (Gibco) and 10% fetal bovine serum. Plates containing BSMC cells were collagen coated to assist with cell adhesion. Following an overnight settling period, media was replaced with fresh media, with, or without, compound. Compound concentrations tested were 1, 3, 10, 30, and 100 μM, in duplicate. The cells were incubated with compound for 24 h. Control (1% DMSO) and positive standards terfenadine- and salmeterol-treated groups were included for both cell lines. […] The reaction was stopped with 12.5 μL of 10% SDS, plates briefly shaken, and absorbance (490 nm) read using a Spectramax M5e plate reader (Molecular Devices). Percentages of viable cells were calculated as: (test sample Abs 490 nM-mean blank Abs 490 nm)/(mean control Abs 490 nM-mean blank Abs 490 nm) × 100.

[2] = Cytotoxicity screening (MTS), HepG2; assay type: cell-based; conditions: human, HepG2 cells
Procedure: as §1

[3] = Mouse pharmacokinetics, lung epithelial lining fluid (ELF); assay type: in vivo; conditions: for ELF concentration (C0) relative to LasB Ki: 10 mg/kg IV; for Kp / C0 / AUC(0-t) / clearance / half-life: female, ICR (CD-1); for Kp: lung epithelial lining fluid (ELF) and plasma, iv, read-out: lung penetration (AUClast ELF/AUClast plasma); for Kp / lung penetration (AUClast plasma/AUClast ELF): 10 mg/kg; for Kp / C0 / AUC(0-t) / clearance / half-life / lung penetration (AUClast plasma/AUClast ELF): single 10 mg/kg IV dose; for C0 / AUC(0-t) / clearance / half-life: lung epithelial lining fluid (ELF), epithelial lining fluid; for AUC(0-t): read-out: ELF AUClast; for clearance: read-out: ELF CL; for half-life: read-out: ELF t1/2 (converted)
Procedure: The PK parameters of compounds 12 and 16 were investigated in both plasma and lung epithelial lining fluid (ELF) after intravenous (IV) administration of compounds at 10 mg/kg in mice (Figure 4 and Table 5). […] Accordingly, these levels of lung penetration (9.5 and 5.2%, respectively) warranted the evaluation of the compounds in an animal model of lung infection using IV dosing.
Unrestrained, nonanesthetized mice (Female ICR (CD-1); Age 5–6 weeks; Size 22 ± 2 g; specific pathogen-free (SPF)) were injected IV with test article formulations via the tail vein. Animals were sacrificed by cardiac puncture under CO2 euthanasia at 0.08, 0.25, 1, 2, 4, 8, and 24 h post dosing. Blood was drawn into tubes coated with EDTA-K3, mixed gently and plasma was then harvested and kept frozen at −70 °C until further processing. To collect […] (BALF), 0.5 mL of PBS was administered once through a tracheal cannula after which about 0.2 to 0.3 mL of BALF was obtained. The BALF was kept on ice and centrifuged within 1 h of collection and the supernatant was harvested and kept frozen at −70 °C. Plasma and BALF samples were analyzed by LC-MS/MS (AB SCIEX API 3000 mass spectrometer). The apparent ELF volume of each BALF sample was estimated using urea as an endogenous marker of the ELF dilution. The urea concentrations in BALF and plasma samples were determined with the QuantiChrom Urea Assay Kit (DIUR-100) (BioAssay Systems) following the manufacturer’s protocol. For each BALF sample, the drug concentration in ELF was calculated as follows: drug concentrationELF = drug concentrationBALF × (urea concentrationplasma/urea concentrationBALF). The PK parameters of each compound after IV dosing (t1/2, C0, AUClast, and CL) were obtained from the noncompartmental analysis (NCA) of the plasma data using WinNonlin.

LasB Q71L = target: T1, LasB Q71L (Pseudomonas aeruginosa, UniProt P14756); test: LasB variant inhibition, culture supernatant: Q71L; assay type: biochemical, P. aeruginosa
T1 construct: endogenous in cells; host or cells: P. aeruginosa clinical CF isolate, culture supernatant
T1 sequence (P14756 198-498, stated change not applied): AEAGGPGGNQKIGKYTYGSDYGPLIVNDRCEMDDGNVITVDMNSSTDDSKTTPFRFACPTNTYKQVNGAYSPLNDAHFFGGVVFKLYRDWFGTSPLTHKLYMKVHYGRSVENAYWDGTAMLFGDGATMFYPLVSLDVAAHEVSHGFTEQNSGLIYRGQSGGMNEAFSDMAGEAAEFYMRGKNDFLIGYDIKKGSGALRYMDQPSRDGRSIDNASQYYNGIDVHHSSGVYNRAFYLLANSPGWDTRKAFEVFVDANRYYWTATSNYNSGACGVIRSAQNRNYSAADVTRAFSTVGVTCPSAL
Excerpt: (§2) Compounds 12 and 16 were discovered as a result of optimizing potency against the LasB protein expressed from the wild-type (WT) reference strain P. aeruginosa PAO1. To understand the relative prevalence of the WT LasB protein versus other variants in clinical respiratory P. aeruginosa strains, the full-length lasB gene was amplified by PCR from 255 clinical isolates (obtained from CF sputum samples). […] Most changes were identified in the mature peptide, however some occurred in the propeptide domain, which could affect LasB processing (marked in italics in Table 4).
(§3) LasB inhibition assays were performed using purified LasB enzyme (1 ng/well) for compound screening or using culture supernatants (prepared as described in the ECR assay) for testing LasB variants. Hydrolysis of the fluorogenic peptide substrate 2-aminobenzoyl-Ala-Gly-Leu-Ala-4-nitrobenzylamide (Abz-AGLA-Nba; Peptide International) in 50 mM Tris-HCl (pH 7.4), supplemented with 2.5 mM CaCl2 was followed using an Envision microplate reader (PerkinElmer) at 315 nm excitation and 430 nm emission. […] IC50 values were determined from Hill plots using Dotmatics Studies ELN software. For the mechanism of inhibition studies, hydrolysis rates were measured in the presence of variable concentrations of substrate and inhibitor, and the inhibition constant (Ki) was determined using Dixon plot analysis.[31]

[4] = Cytotoxicity screening (MTS), SAEC; assay type: cell-based; conditions: human, small airway epithelial cells (SAEC)
Procedure: as §1

[5] = target: T2, LasB Q102R, S241G, D244N, K282N, R471S (Pseudomonas aeruginosa, UniProt P14756, D244N/K282N/R471S/S241G); test: LasB variant inhibition, culture supernatant: five substitutions; assay type: biochemical, P. aeruginosa
T2 construct: Most changes were identified in the mature peptide, however some occurred in the propeptide domain; endogenous in cells; host or cells: P. aeruginosa clinical CF isolate, culture supernatant
T2 sequence (P14756 198-498, looked up, stated change not applied): as the sequence (P14756 198-498, stated change not applied) above
Excerpt: as §2, §3

COc1cc2sc(CNC(=O)C3(CC(=O)O)Cc4ccccc4C3)nc2cc1OCCC[N+](C)(C)C [Compound 12]
IC50 at 24 h [1]: > 100000 nM | IC50 at 24 h [2]: > 100000 nM | ELF concentration (C0) relative to LasB Ki [3]: over 100 fold | Kp [3]: 0.095 | C0 [3]: 2700 ng/mL | AUC(0-t) [3]: 57700 ng·h/mL | clearance [3]: 1.5 mL/min/kg | half-life [3]: 25.8 h | lung penetration (AUClast plasma/AUClast ELF) [3]: 9.54% | IC50 (LasB Q71L): 214 nM | IC50 at 24 h [4]: > 100000 nM | IC50 [5]: 183 nM

COc1cc2sc(CNC(=O)C3(CC(=O)O)Cc4cc(F)c(F)cc4C3)nc2cc1OCCC[N+](C)(CCO)CCO [Compound 16]
IC50 at 24 h [1]: > 100000 nM | IC50 at 24 h [2]: > 100000 nM | ELF concentration (C0) relative to LasB Ki [3]: over 100 fold | Kp [3]: 0.052 | C0 [3]: 2700 ng/mL | AUC(0-t) [3]: 27000 ng·h/mL | clearance [3]: 5.2 mL/min/kg | half-life [3]: 9.5 h | lung penetration (AUClast plasma/AUClast ELF) [3]: 5.22% | IC50 (LasB Q71L): 177 nM | IC50 at 24 h [4]: > 100000 nM | IC50 [5]: 178 nM
